The structures appear in SMILES notation. pIC50: −log10 of the molar value.

The assay deals with HIV-1 PR (Human immunodeficiency virus type 1 group M subtype B, UniProt P04585). Briefly: HIV-protease inhibitory activity assay (FRET peptide substrate). The class given is biochemical. The conditions noted are these: Test Example 1. A digest of the protocol:
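Fluorescence recovery at ex 485/em 535 nm reports cleavage of a quenched FRET peptide (2 μmol/L final) by 0.83 ng enzyme over 60 minutes at room temperature. Buffer was NaAc pH 4.8 with NaCl, EDTA, DTT and Tween 20. IC50 values came from four-parameter logistic regression of % inhibition.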
Compound `COc1ccc(S(=O)(=O)N(CC(C)C)CC(O)C(Cc2ccc(OCCNC(=O)c3cc(Cl)ccc3O)cc2)NC(=O)OC2COC3(C)OCCC23)cc1` (centres unmarked) [Compound I-170] had a pIC50 of 9.04.
As for `COc1ccc(S(=O)(=O)N(CC(C)C)CC(O)C(Cc2ccc(N3CC4CN(C(=O)c5sc6c(c5C(=O)O)CC(C)(C)CC6)CC4C3)cc2)NC(=O)OC2COC3(C)OCCC23)cc1` (centres unmarked) [Compound I-223], the pIC50 is 8.71.
As to `COc1ccc(S(=O)(=O)N(CC(C)C)CC(O)C(Cc2ccc(NC(=O)Nc3ccccc3-c3sc4c(c3C(=O)O)CC(C)(C)CC4)cc2)NC(=O)OC2COC3(C)OCCC23)cc1` (centres unmarked) [Compound I-270], the pIC50 was 8.47.
As to `COc1ccc(S(=O)(=O)N(CC(C)C)CC(O)C(Cc2ccc(NCc3ccc(-c4sc5c(c4C(=O)O)CC(C)(C)CC5)c(OC)c3)cc2)NC(=O)OC2COC3(C)OCCC23)cc1` (centres unmarked) [Compound I-554], the pIC50 is 8.75.
`COc1ccc(S(=O)(=O)N(CC(C)C)CC(O)C(Cc2ccc(OCCNC(=O)c3cc(-c4ccc(F)cc4F)ccc3O)cc2)NC(=O)OC2COC3(C)OCCC23)cc1` (centres unmarked) [Compound I-172] showed a pIC50 of 8.99.
Consider `COc1ccc(S(=O)(=O)N(CC(C)C)CC(O)C(Cc2ccc(N(C)Cc3cccc(C)c3C(=O)Nc3sc4c(c3C(=O)O)CC(C)(C)CC4)cc2)NC(=O)OC2COC3(C)OCCC23)cc1` (centres unmarked) [Compound I-747], for which the pIC50 was 8.36.
In turn, `COc1ccc(S(=O)(=O)N(CC(C)C)CC(O)C(Cc2ccc(N(C)Cc3cc(C#N)ccc3-c3sc4c(c3C(=O)O)CC(C)(C)CC4)cc2)NC(=O)OC2COC3(C)OCCC23)cc1` (centres unmarked) [Compound I-452] had a pIC50 of 8.59.
Consider `COc1ccc(S(=O)(=O)N(CC(C)C)CC(O)C(Cc2ccc(N(C)Cc3cc(C)ccc3C(=O)Nc3sc4c(c3C(=O)O)CC(C)(C)CC4)cc2)NC(=O)OC2COC3(C)OCCC23)cc1` (centres unmarked) [Compound I-746], for which the pIC50 was 8.55.
In turn, `COc1ccc(S(=O)(=O)N(CC(C)C)CC(O)C(Cc2ccc(OC3CCN(c4ncccc4-c4sc5c(c4C(=O)O)CC(C)(C)CC5)C3)cc2)NC(=O)OC2COC3(C)OCCC23)cc1` (centres unmarked) [Compound I-355] had a pIC50 of 8.63.
Compound `CC(C)CN(CC(O)C(Cc1ccc(OCc2ccccc2-c2ccccc2C(=O)N(C)C)cc1)NC(=O)OC1COC2(C)OCCC12)S(=O)(=O)c1ccc2ncsc2c1` (centres unmarked) [Compound I-160] gave a pIC50 of 9.02.
For `COc1ccc(S(=O)(=O)N(CC(C)C)CC(O)C(Cc2ccc(N(CCCCc3ccccc3)Cc3ccccc3-c3sc4c(c3C(=O)O)CC(C)(C)CC4)cc2)NC(=O)OC2COC3(C)OCCC23)cc1` (centres unmarked) [Compound I-432], the pIC50 is 8.07.
Regarding `COc1ccc(S(=O)(=O)N(CC(C)C)CC(O)C(Cc2ccc(NCc3ccc(-c4sc5c(c4C(=O)O)CC(C)(C)CC5)nc3)cc2)NC(=O)OC2COC3(C)OCCC23)cc1` (centres unmarked) [Compound I-551], the pIC50 was 8.87.
As to `COc1ccc(S(=O)(=O)N(CC(C)C)CC(O)C(Cc2ccc(NCc3ccccc3-c3c(C(=O)O)[nH]c4cc(Cl)cc(Cl)c34)cc2)NC(=O)OC2COC3(C)OCCC23)cc1` (centres unmarked) [Compound I-633], the pIC50 was 8.61.
In the case of `COc1ccc(S(=O)(=O)N(CC(C)C)CC(O)C(Cc2ccc(OCc3ccccc3-c3ccc(-n4nc(C(=O)O)c5c4CCC(C)(C)C5)cc3)cc2)NC(=O)OC2COC3(C)OCCC23)cc1` (centres unmarked) [Compound I-302], the pIC50 was 8.64. The pIC50 values of the last two compounds are within 0.2 log units of each other.
`COc1ccc(S(=O)(=O)N(CC(C)C)CC(O)C(Cc2ccc(N(C)Cc3ccccc3C(=O)N(C)c3sc4c(c3C(=O)O)CC(C)(C)CC4)cc2)NC(=O)OC2COC3(C)OCCC23)cc1` (centres unmarked) [Compound I-590] gave a pIC50 of 8.55. The pIC50 values of the last two compounds are within 0.2 log units of each other.
`CC(C)CN(CC(O)C(Cc1ccc(NCc2ccccc2C(=O)Nc2sc3c(c2C(=O)O)CC(C)(C)CC3)cc1)NC(=O)OC1COC2OCCC12)S(=O)(=O)c1ccc2ncsc2c1` (centres unmarked) [Compound I-855]: the pIC50 was 8.58.
The value for `COc1ccc(S(=O)(=O)N(CC(C)C)CC(O)C(Cc2ccc(OC3CCC(C(C)(C)C(=O)O)CC3)cc2)NC(=O)OC2COC3(C)OCCC23)cc1` (centres unmarked) [Compound I-310] was 8.71.

Source of the values: patent publication US20170253607A1, “LONG-ACTING HIV PROTEASE INHIBITOR” (Shionogi & Co., Ltd., priority 2014, published 2017).
